pIC50, pKi: −log10 of the molar value.
Legend:
[1] = molecular target: T1, Phosphatidylinositol 4,5-bisphosphate 3-kinase catalytic subunit delta isoform (Homo sapiens, UniProt O00329); assay: biochemical
T1 sequence (O00329 whole entry): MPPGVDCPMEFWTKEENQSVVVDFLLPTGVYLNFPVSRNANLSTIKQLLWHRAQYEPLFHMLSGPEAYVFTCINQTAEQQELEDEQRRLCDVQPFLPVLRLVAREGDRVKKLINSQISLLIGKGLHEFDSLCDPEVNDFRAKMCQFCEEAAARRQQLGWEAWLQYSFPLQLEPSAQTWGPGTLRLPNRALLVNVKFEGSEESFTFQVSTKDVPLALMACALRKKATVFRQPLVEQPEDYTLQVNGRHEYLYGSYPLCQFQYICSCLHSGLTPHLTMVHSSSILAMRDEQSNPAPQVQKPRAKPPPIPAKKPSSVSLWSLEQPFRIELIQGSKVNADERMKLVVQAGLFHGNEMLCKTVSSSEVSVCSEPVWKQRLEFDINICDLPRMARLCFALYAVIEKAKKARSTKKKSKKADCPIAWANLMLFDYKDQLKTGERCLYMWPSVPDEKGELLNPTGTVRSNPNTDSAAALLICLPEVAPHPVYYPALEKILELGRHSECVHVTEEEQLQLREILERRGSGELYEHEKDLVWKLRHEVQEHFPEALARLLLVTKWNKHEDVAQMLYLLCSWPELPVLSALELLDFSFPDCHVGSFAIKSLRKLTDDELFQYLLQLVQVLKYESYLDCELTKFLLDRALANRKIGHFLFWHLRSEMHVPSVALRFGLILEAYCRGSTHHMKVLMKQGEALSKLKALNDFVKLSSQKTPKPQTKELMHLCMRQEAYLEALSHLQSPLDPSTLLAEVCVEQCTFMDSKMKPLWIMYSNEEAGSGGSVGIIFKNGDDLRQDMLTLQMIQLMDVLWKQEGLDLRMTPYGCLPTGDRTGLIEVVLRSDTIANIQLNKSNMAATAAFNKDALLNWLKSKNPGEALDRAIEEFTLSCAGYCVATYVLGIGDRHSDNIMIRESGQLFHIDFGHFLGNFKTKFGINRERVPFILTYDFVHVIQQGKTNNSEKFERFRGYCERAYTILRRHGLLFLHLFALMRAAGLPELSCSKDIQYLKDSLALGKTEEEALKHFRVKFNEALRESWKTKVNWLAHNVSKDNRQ

[2] = in vitro; settings: rat, liver microsomes
[3] = molecular target: Phosphatidylinositol 4,5-bisphosphate 3-kinase catalytic subunit beta isoform (Homo sapiens, UniProt P42338); assay: biochemical
Phosphatidylinositol 4,5-bisphosphate 3-kinase catalytic subunit beta isoform, sequence (P42338 whole entry, canonical isoform): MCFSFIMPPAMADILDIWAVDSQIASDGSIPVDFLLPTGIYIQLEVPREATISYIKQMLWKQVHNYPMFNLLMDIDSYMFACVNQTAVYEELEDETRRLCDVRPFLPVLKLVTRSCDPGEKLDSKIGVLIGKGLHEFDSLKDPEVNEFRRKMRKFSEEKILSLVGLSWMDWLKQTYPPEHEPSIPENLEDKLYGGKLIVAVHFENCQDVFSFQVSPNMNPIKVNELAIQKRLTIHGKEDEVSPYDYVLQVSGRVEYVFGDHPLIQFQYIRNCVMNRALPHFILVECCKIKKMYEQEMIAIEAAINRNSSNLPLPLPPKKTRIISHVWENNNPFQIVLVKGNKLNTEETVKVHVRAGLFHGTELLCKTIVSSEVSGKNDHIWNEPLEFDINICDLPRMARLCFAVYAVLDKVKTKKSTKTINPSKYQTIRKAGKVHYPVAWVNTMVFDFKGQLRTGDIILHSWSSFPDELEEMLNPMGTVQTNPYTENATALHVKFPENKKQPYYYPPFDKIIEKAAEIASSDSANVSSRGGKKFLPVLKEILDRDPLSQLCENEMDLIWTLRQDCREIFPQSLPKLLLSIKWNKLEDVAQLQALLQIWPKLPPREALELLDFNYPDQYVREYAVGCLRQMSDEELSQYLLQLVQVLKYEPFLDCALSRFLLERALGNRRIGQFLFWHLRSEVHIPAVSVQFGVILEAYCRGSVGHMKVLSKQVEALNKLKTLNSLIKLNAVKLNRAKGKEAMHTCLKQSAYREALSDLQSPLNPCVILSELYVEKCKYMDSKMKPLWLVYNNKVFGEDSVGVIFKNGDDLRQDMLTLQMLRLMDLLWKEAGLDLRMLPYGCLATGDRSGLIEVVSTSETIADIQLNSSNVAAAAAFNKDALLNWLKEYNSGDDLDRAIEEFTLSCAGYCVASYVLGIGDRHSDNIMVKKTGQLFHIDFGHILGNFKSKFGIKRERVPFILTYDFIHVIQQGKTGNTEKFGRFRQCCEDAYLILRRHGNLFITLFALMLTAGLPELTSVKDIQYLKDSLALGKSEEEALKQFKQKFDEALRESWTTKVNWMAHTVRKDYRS

[4] = molecular target: Phosphatidylinositol 4,5-bisphosphate 3-kinase catalytic subunit alpha isoform (Homo sapiens, UniProt P42336); assay: biochemical
Phosphatidylinositol 4,5-bisphosphate 3-kinase catalytic subunit alpha isoform, sequence (P42336 whole entry, canonical isoform): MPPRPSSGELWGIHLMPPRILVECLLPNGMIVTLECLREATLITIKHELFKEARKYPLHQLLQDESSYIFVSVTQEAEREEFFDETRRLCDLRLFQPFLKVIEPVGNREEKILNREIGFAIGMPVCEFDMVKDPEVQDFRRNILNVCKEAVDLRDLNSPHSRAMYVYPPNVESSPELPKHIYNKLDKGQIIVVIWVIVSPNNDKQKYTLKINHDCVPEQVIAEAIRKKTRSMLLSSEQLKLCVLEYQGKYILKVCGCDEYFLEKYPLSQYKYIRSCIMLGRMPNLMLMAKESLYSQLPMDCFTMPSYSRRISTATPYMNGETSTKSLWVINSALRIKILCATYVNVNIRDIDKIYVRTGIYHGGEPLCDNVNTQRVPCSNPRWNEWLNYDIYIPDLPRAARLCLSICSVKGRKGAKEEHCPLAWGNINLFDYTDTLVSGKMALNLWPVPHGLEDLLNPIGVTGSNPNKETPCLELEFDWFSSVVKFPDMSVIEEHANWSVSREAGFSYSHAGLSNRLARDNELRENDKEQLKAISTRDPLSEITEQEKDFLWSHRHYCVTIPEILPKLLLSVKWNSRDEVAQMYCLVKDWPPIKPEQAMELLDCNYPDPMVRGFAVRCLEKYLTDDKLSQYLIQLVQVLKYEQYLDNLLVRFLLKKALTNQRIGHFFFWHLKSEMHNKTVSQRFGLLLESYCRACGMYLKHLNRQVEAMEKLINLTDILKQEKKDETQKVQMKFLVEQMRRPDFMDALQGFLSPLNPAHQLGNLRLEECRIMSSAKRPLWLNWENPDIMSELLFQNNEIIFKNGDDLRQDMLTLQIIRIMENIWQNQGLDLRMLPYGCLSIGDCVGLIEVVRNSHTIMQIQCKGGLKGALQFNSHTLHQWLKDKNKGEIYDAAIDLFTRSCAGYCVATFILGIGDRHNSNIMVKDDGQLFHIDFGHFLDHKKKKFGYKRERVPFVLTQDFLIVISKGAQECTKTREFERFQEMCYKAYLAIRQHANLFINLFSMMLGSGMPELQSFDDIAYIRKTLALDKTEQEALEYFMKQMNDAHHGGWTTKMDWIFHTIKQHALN

[5] = molecular target: Serine/threonine-protein kinase B-raf (Homo sapiens, UniProt P15056, V600E)
Serine/threonine-protein kinase B-raf, sequence (P15056 2-766 V600E limits assumed): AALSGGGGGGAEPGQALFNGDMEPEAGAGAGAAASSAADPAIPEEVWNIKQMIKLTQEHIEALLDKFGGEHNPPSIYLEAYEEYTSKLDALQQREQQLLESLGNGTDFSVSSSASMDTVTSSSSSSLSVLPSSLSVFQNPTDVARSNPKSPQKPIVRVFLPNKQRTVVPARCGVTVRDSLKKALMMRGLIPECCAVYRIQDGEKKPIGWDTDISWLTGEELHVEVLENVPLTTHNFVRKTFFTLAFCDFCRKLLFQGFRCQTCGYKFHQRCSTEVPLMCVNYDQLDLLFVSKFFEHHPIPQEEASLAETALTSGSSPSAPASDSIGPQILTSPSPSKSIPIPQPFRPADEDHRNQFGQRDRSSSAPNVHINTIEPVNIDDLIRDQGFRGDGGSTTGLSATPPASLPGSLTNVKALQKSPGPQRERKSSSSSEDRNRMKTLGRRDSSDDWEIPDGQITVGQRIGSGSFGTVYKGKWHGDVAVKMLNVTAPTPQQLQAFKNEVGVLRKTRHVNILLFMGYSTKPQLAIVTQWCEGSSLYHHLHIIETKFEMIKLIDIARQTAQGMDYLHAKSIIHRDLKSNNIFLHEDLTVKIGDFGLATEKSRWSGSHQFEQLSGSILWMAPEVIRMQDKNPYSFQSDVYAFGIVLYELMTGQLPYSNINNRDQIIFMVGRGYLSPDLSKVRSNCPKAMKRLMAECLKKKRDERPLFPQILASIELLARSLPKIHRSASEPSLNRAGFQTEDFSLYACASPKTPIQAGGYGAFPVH

[6] = molecular target: Phosphatidylinositol 4,5-bisphosphate 3-kinase catalytic subunit gamma isoform (Homo sapiens, UniProt P48736); assay: biochemical
Phosphatidylinositol 4,5-bisphosphate 3-kinase catalytic subunit gamma isoform, sequence (P48736 whole entry, canonical isoform): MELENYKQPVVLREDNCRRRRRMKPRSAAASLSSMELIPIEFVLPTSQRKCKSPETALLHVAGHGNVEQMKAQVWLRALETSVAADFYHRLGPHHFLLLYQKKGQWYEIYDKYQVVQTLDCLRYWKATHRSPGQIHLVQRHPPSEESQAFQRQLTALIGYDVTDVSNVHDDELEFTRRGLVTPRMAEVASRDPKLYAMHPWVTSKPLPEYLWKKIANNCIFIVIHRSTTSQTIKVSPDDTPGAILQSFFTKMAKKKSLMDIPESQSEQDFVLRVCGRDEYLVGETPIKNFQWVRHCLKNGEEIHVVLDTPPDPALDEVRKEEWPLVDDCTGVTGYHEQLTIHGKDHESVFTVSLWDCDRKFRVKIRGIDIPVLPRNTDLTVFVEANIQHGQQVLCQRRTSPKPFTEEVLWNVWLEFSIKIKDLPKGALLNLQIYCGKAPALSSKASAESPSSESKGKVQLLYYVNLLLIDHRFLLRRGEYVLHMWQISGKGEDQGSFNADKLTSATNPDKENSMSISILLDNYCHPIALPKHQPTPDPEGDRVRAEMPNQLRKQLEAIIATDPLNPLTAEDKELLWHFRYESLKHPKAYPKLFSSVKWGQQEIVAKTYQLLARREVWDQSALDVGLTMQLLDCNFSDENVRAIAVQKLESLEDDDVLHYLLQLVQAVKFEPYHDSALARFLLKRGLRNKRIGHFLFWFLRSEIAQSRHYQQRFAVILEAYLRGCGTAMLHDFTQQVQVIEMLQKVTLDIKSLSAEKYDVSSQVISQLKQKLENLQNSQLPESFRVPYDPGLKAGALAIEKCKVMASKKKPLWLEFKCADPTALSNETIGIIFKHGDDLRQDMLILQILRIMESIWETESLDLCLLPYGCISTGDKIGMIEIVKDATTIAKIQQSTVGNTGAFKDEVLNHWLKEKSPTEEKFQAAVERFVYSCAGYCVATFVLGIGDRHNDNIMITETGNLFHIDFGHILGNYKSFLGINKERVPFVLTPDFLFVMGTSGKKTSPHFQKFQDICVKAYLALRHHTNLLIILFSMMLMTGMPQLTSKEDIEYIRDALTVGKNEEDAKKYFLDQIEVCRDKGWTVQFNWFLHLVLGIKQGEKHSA

[7] = in vivo; settings: rat, plasma, po, 2 mg/kg
[8] = in vivo; settings: rat, iv, 1 mg/kg
[9] = in vivo; settings: rat, iv, 1 mg/kg; remark: listed apart in the source
[10] = in vivo; settings: rat, iv, 1 mg/kg; remark: listed apart in the source
[11] = Oral bioavailability in rat at 2 mg/kg; format: ADME, organism-based; settings: in vivo
[12] = molecular target: Serine/threonine-protein kinase mTOR (Homo sapiens, UniProt P42345)
[13] = molecular target: Phosphatidylinositol 3-kinase catalytic subunit type 3 (Homo sapiens, UniProt Q8NEB9)
Phosphatidylinositol 3-kinase catalytic subunit type 3, sequence (Q8NEB9 whole entry): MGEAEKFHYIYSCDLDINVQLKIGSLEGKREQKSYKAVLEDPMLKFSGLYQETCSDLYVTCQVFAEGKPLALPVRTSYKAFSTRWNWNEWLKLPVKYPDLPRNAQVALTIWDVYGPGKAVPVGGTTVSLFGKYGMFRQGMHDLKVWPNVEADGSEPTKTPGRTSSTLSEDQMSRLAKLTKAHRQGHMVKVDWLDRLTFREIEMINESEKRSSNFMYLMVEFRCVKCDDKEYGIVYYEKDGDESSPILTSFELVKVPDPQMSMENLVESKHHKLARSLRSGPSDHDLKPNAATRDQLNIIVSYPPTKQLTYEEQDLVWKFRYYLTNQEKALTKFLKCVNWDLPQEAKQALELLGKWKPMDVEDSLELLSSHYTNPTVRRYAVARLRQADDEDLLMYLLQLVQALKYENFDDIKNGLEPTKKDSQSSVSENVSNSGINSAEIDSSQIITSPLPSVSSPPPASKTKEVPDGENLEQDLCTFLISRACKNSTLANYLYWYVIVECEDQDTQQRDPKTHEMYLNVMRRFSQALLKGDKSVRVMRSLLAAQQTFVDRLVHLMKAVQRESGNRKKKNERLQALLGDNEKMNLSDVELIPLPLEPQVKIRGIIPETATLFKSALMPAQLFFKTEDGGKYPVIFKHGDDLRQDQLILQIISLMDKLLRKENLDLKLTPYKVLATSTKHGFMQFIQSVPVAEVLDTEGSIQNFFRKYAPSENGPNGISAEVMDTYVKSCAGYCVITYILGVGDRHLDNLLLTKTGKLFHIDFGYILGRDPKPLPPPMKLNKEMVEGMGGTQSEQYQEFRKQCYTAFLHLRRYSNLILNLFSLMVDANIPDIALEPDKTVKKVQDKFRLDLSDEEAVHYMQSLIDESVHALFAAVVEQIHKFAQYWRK

SMILES | pKi [1] | microsomal CLint [2] | pKi [3] | pKi [4] | pIC50 [5] | pKi [6] | AUC [7] | clearance [8] | MRT [9] | Vd [10] | bioavailability [11] | pIC50 [12] | pIC50 [13]
Cc1nc(NCC#N)nc(-n2c(Nc3cccc(O)c3)nc3ccccc32)n1 | 7.96 | 394 µL/min/mg | 7.37 | 7.80 | 5.92 | 7.16 |  |  |  |  |  |  | 
COc1ccc(Nc2ncc(Cc3ccc(S(C)(=O)=O)cc3)cc2-c2nc(C)nc(N)n2)cn1 | 9.00 | 59 µL/min/mg |  |  |  | 8.15 | 40 nM·h | 1.8 L/h/kg | 1.2 h | 2.1 L/kg | 2% |  | 
COc1ccc(Nc2ncc(CN3CCC(S(C)(=O)=O)CC3)cc2-c2nc(C)nc(N)n2)cn1 | 8.52 | 20 µL/min/mg | 8.30 |  |  | 8.05 | 330 nM·h | 2.5 L/h/kg | 1.3 h | 2.9 L/kg | 18% |  | 
Cc1nc(N)c(F)c(-c2cccnc2Nc2cccc3[nH]ncc23)n1 | 6.09 | 71 µL/min/mg | 6.00 | 6.03 | < 6.00 | 6.48 |  |  |  |  |  | < 5.00 | 
Nc1cc(-c2cccnc2Nc2cccc3[nH]ncc23)nc(C(F)(F)F)n1 | < 5.00 | 76 µL/min/mg | 5.89 | 5.49 | < 6.00 | 5.44 |  |  |  |  |  | < 5.00 | 
Cc1nc(N)nc(-c2cccnc2Nc2cccc3[nH]ccc23)n1 | 7.60 | 110 µL/min/mg | 8.05 |  | < 6.00 | 7.35 |  |  |  |  |  |  | < 5.05
Cc1nc(N)cc(-c2cccnc2Nc2cccc(O)c2)n1 | 7.25 | 62 µL/min/mg | 7.46 | 7.55 | < 6.00 | 7.29 |  |  |  |  |  | 6.44 | 
Cc1nc(N)cc(-c2cccnc2Nc2cccc3[nH]ncc23)n1 | 6.43 | 75 µL/min/mg | 6.96 | 6.82 | < 6.00 | 7.04 |  |  |  |  |  | < 5.00 | 

Further lines, with some results ahead:

pKi [1] | microsomal CLint [2] | pKi [3] | pKi [4] | pIC50 [5] | pKi [6] | AUC [7] | clearance [8] | MRT [9] | Vd [10] | bioavailability [11] | pIC50 [12] | SMILES | pIC50 [13]
8.40 | 111 µL/min/mg | 7.82 |  |  | 8.10 | 40 nM·h | 2.8 L/h/kg | 1 h | 2.7 L/kg | 3% |  | COc1ccc(Nc2ncc(CC3CCN(S(C)(=O)=O)CC3)cc2-c2nc(C)nc(N)n2)cn1 | 
6.89 | 72 µL/min/mg | 6.89 | 6.92 | < 6.00 | 7.24 |  |  |  |  |  |  | COc1ccc(Nc2nccnc2-c2cc(N)nc(C)n2)cn1 | 
5.30 | 56 µL/min/mg | 5.64 | 5.77 | < 6.00 | 6.35 |  |  |  |  |  | < 5.00 | Cc1nc(-c2cccnc2Nc2cccc3n[nH]cc23)c2c[nH]nc2n1 | 
< 5.00 | 218 µL/min/mg | < 5.00 | < 5.00 | < 6.00 | < 5.00 |  |  |  |  |  | < 5.00 | Cc1cc(-c2cccnc2Oc2cccc3[nH]ccc23)nc(N)n1 | 
< 5.00 | 41 µL/min/mg | < 5.00 | < 5.00 | < 6.00 | < 5.00 |  |  |  |  |  | < 5.00 | COc1ccc(N(C)c2ncccc2-c2nc(C)nc(N)n2)cn1 | 
5.22 | 118 µL/min/mg | < 5.00 | 5.31 | < 6.00 | 5.59 |  |  |  |  |  | < 5.00 | Cc1cc(-c2cccnc2Nc2cccc(O)c2)nc(N)n1 | 
8.52 | 218 µL/min/mg | 8.40 | 8.70 | < 6.00 | 8.40 |  |  |  |  |  | 8.15 | Cc1ncnc(-n2c(Nc3cccc(O)c3)nc3ccccc32)n1 | 
6.89 | 65 µL/min/mg | 7.29 | 7.04 | < 6.00 | 7.06 |  |  |  |  |  | < 5.00 | Cc1nc(N)nc(-c2cccnc2Nc2cccc3[nH]ncc23)n1 | < 5.05
